Literature values, collected in paper PMC6376154 (International Journal for Parasitology: Drugs and Drug …, 2019).
pEC50: −log10 of the molar value. Like-named read-outs stand apart in the source and are kept apart here.

Tested on: P. falciparum 3D7 asexual blood stage
Conditions: cited from earlier work
[1] = MMV Malaria Box data sheet (supplement mmc2.xls), ref MMV data sheet
[2] = MMV Malaria Box data sheet (supplement mmc2.xls), ref MMV data sheet, read-out: EC50_nM
[3] = value(s) per source (GSK, GNF, StJude), separated by semicolon, ref ChEMBL-NTD, read-out: CHEMBL EC50
[4] = MMV Malaria Box sheet, ref MMV data sheets
[5] = MMV Malaria Box sheet, ref MMV data sheets, read-out: EC50_nM
[6] = source GSK, ref ChEMBL_NTD, read-out: CHEMBL EC50
[7] = MMV Malaria Box data sheet, ref MMV data sheets
[8] = MMV Malaria Box data sheet, ref MMV data sheets, read-out: EC50_nM
[9] = source StJude, ref ChEMBL_NTD, read-out: CHEMBL EC50
[10] = ChEMBL-NTD value per source (GNF, GSK, StJude), several values in a cell follow the order of the sources, read-out: CHEMBL EC50
[11] = source GNF, ref ChEMBL_NTD, read-out: CHEMBL EC50

CCOc1cc(Br)c(C(C)NC(=O)c2cccc(OC)c2)cc1OCC (centres unmarked) [MMV665796]
percent_inh @ 5 uM [1]: 96%
pEC50 [2]: 5.84
pEC50 [3]: 6.77

CCCCOC(=O)c1ccc(Nc2cc(C)nc3ccc(OC)cc23)cc1 [MMV665797]
percent_inh @ 5 uM [4]: 99%
pEC50 [5]: 6.23
pEC50 [6]: 6.19

FC(F)(F)c1cccc(Nc2nc(-c3ccccc3)nc3ncccc23)c1 [MMV665798]
percent_inh @ 5 uM [1]: 74%
pEC50 [3]: 6.10

COc1ccc(C(=O)Nc2ccc(Cl)cc2C(=O)Nc2ccncc2)cc1 [MMV665799]
percent_inh @ 5 uM [1]: 93%
pEC50 [3]: 6.08

CCOc1cc(Cl)c(C(C)NC(=O)c2cccc(OC)c2)cc1OCC (centres unmarked) [MMV665803]
percent_inh @ 5 uM [1]: 98%
pEC50 [2]: 6.14
pEC50 [3]: 6.02

CCOc1ccc(-c2nonc2NC(=O)c2cccc(C)c2)cc1OCC [MMV665805]
percent_inh @ 5 uM [7]: 86%
pEC50 [8]: 6.93
pEC50 [9]: 7.21

Cc1c(C)n(CC(O)CNC2CCCCC2C)c2ccccc12 (centres unmarked) [MMV665806]
percent_inh @ 5 uM [4]: 96%
pEC50 [5]: 6.11
pEC50 [9]: 6.28

O=C(Nc1cccc(C(F)(F)F)c1)c1cc(Cl)ccc1O [MMV665807]
percent_inh @ 5 uM [1]: 93%
pEC50 [3]: 6.01

Oc1ccc(Br)cc1CN1CCN(Cc2ccc(Cl)cc2)CC1 [MMV665809]
pEC50 [10]: 5.83

CCc1ccc(CNCC(O)c2ccccc2)cc1 (centres unmarked) [MMV665812]
pEC50 [10]: 5.66

CCOC(=O)c1cnc2ccc(OC)cc2c1NCc1ccccc1 [MMV665813]
pEC50 [10]: 5.56

CC(C)(C)CC(C)(C)NCC(O)COc1ccc2c(c1)CCC2 (centres unmarked) [MMV665817]
percent_inh @ 5 uM [7]: 78%
pEC50 [9]: 5.35

Cn1c(C(=O)c2cccc3ccccc23)nc2ccccc21 [MMV665824]
pEC50 [10]: 8.16

COc1cccc(NC(=O)Cn2c(C)c(C#N)c3ccccc32)c1 [MMV665826]
percent_inh @ 5 uM [1]: 95%
pEC50 [2]: 5.96

CCOC(=O)c1cn(CC)c2cc(N3CCCCC3)c(F)cc2c1=O [MMV665827]
percent_inh @ 5 uM [7]: 100%
pEC50 [8]: 6.92
pEC50 [11]: 6.78
pEC50 [6]: 6.90

CC1CC2=C(CC1CNCCCN(C)C)C(C)(C)CCC2 (centres unmarked) [MMV665830]
pEC50 [10]: 6.60

CCOC(=O)c1c(NC(=O)c2ccccc2)sc2c(O)c(CN(CC)CC)ccc12 [MMV665831]
percent_inh @ 5 uM [7]: 96%
pEC50 [8]: 6.69
pEC50 [11]: 6.57
pEC50 [6]: 6.01

O=C(Nc1ccc(-c2nc3ccccc3[nH]2)cc1)c1ccc(Cl)c(Cl)c1 [MMV665840]
pEC50 [10]: 6.28

Oc1c2c(nc3ccccc13)CCCC2 [MMV665843]
percent_inh @ 5 uM [4]: 82%
pEC50 [11]: 6.20

Oc1ccc(Cl)cc1CNc1nc2ccccc2[nH]1 [MMV665850]
percent_inh @ 5 uM [7]: 95%
pEC50 [11]: 6.04

O=C(Nc1ccc(Cl)c(Cl)c1)Nc1ccc(Cl)c(Cl)c1 [MMV665852]
pEC50 [10]: 5.99

CCOc1c(Cl)cc(CNC(C)C(O)c2ccccc2)cc1OC (centres unmarked) [MMV665857]
percent_inh @ 5 uM [1]: 98%
pEC50 [3]: 5.78

CCCCNc1nc(NC(C)(C)C)nc(NC(C)(C)C)n1 [MMV665864]
pEC50 [10]: 5.67

Cc1cc(Nc2ccc(C)c(Cl)c2)n2nc(C(F)(F)F)nc2n1 [MMV665874]
percent_inh @ 5 uM [7]: 98%
pEC50 [8]: 8.17
pEC50 [6]: 7.80

Cn1c(=O)n(C)c2cc(CNCCNc3ccnc4cc(Cl)ccc34)ccc21 [MMV665875]
pEC50 [10]: 6.85

CCC(c1ccccc1)c1nn2c(-c3cccs3)nnc2s1 (centres unmarked) [MMV665876]
percent_inh @ 5 uM [7]: 99%
pEC50 [8]: 6.59
pEC50 [6]: 6.78

COc1cccc(NC(=O)[C@H](C(C)C)n2c(=O)[nH]c3ccccc3c2=O)c1 [MMV665878]
percent_inh @ 5 uM [7]: 99%
pEC50 [8]: 6.86
pEC50 [6]: 6.57

CC(C)(C)C(=O)Nc1ccc(C(=O)Nc2cccc(-c3nc4ccccc4[nH]3)c2)cc1 [MMV665879]
percent_inh @ 5 uM [1]: 91%
pEC50 [3]: 6.55

COc1ccc(CNC(=O)c2cc3c(=O)n4ccccc4nc3n(CCc3ccccc3)c2=N)cc1 [MMV665881]
pEC50 [10]: 6.48

OC(CNC1CCCCC1)Cn1c2ccc(I)cc2c2cc(I)ccc21 (centres unmarked) [MMV665882]
pEC50 [10]: 6.47

O=C(Nc1cccc(-c2nc3ccccc3[nH]2)c1)c1cccc(NC(=O)c2ccco2)c1 [MMV665883]
percent_inh @ 5 uM [4]: 95%
pEC50 [5]: 6.13
pEC50 [6]: 6.44

CC(Oc1ccc(NC(=O)c2cccs2)cc1)C(=O)c1ccc(Cl)cc1 (centres unmarked) [MMV665886]
pEC50 [10]: 6.11

O=C(Nc1ccccc1O)c1ccc(Oc2cccc(C(=O)Nc3ccccc3O)c2)cc1 [MMV665888]
percent_inh @ 5 uM [1]: 91%
pEC50 [3]: 6.10

COc1ccc(-c2nonc2NC(=O)c2cccc(C)c2)cc1OC [MMV665890]
percent_inh @ 5 uM [1]: 95%
pEC50 [3]: 6.09

c1ccc(-c2ccc(-c3nc4ccccc4[nH]3)cc2)cc1 [MMV665891]
percent_inh @ 5 uM [1]: 52%
pEC50 [2]: 5.97
pEC50 [3]: 6.09

CC(=O)c1sc(NC(=O)Nc2ccc(C)cc2C)nc1C [MMV665894]
pEC50 [10]: 6.04

COc1ccc2nc(N)nc(C)c2c1 [MMV665897]
percent_inh @ 5 uM [4]: 63%
pEC50 [6]: 6.03

COc1cc(C(=O)Nc2ccc(-c3nc4ccccc4[nH]3)cc2)cc(OC)c1OC [MMV665898]
pEC50 [10]: 6.01

O=C(c1ccccc1F)N(Cc1ccc(Cl)cc1)c1ccccn1 [MMV665899]
percent_inh @ 5 uM [1]: 59%
pEC50 [3]: 5.99

O=C(Nc1ccc(CN2CCOCC2)cc1)c1ccc(-c2ccc(Br)cc2)o1 [MMV665901]
percent_inh @ 5 uM [1]: 96%
pEC50 [2]: 5.87
pEC50 [3]: 5.95

N=c1n(CCN2CCCCC2)c2ccccc2n1CC(O)c1cccc(Br)c1 (centres unmarked) [MMV665902]
percent_inh @ 5 uM [1]: 98%
pEC50 [2]: 6.05
pEC50 [3]: 5.94

COCCn1c(C)nc2ccccc2c1=O [MMV665904]
percent_inh @ 5 uM [4]: 59%
pEC50 [6]: 5.84

Cc1ccc(-c2cc(C(=O)Nc3ccc(S(=O)(=O)N4CCCCC4)cc3)[nH]n2)c(O)c1 [MMV665906]
percent_inh @ 5 uM [1]: 94%
pEC50 [2]: 6.27
pEC50 [3]: 5.75

COc1ccc(N2CCN(C(CNC(=O)CC(C)(C)C)c3ccc4c(c3)OCO4)CC2)cc1 (centres unmarked) [MMV665908]
percent_inh @ 5 uM [4]: 95%
pEC50 [9]: 5.37

O=C(Nc1nc(-c2ccccn2)cs1)c1ccccc1Br [MMV665909]
percent_inh @ 5 uM [7]: 97%
pEC50 [8]: 5.87
pEC50 [9]: 5.34

CCOc1ccc(-c2nc(NC(=O)c3cccc(S(C)(=O)=O)c3)sc2C)cc1 [MMV665913]
percent_inh @ 5 uM [1]: 95%
pEC50 [3]: 4.82

COc1ccccc1N1CCN(C(CNS(=O)(=O)c2ccc(Cl)cc2)c2cccnc2)CC1 (centres unmarked) [MMV665914]
percent_inh @ 5 uM [1]: 93%
pEC50 [3]: 4.82

COc1ccc(-c2nc(NC(=O)CS(=O)(=O)c3ccc(F)cc3)sc2C)cc1 [MMV665915]
percent_inh @ 5 uM [7]: 97%
pEC50 [8]: 6.35
pEC50 [11]: 6.67
pEC50 [6]: 6.61

COc1ccccc1CNC(=O)CCn1c(=O)[nH]c2ccccc2c1=O [MMV665916]
percent_inh @ 5 uM [7]: 64%
pEC50 [8]: 7.14
pEC50 [11]: 6.27

O=C(Nc1ccc(Cl)cc1)N1CCN(c2ccc3nncn3n2)CC1 [MMV665917]
percent_inh @ 5 uM [7]: 62%
pEC50 [11]: 5.69

O=C(CSc1ccc2nnc(-c3cccc(F)c3)n2n1)Nc1ccc2c(c1)OCO2 [MMV665918]
percent_inh @ 5 uM [1]: 92%
pEC50 [3]: 5.68

N=c1c2ccccc2nnn1-c1cccc(C(F)(F)F)c1 [MMV665923]
pEC50 [10]: 6.87

COc1ccc(C(=O)C2CC2c2ccc(Cl)cc2)cc1 (centres unmarked) [MMV665924]
percent_inh @ 5 uM [4]: 94%
pEC50 [5]: 5.97
pEC50 [11]: 6.66

O=C(CCl)NCCOc1ccc(Cl)cc1Cl [MMV665927]
pEC50 [10]: 6.27

CCC(C)NCC(O)(c1ccc(Cl)cc1)c1ccc(Cl)cc1 (centres unmarked) [MMV665928]
percent_inh @ 5 uM [7]: 98%
pEC50 [8]: 6.19
pEC50 [11]: 6.19
pEC50 [6]: 6.07

CCCCNCC(O)(c1ccc(Cl)cc1)c1ccc(Cl)cc1 [MMV665929]
percent_inh @ 5 uM [1]: 97%
pEC50 [2]: 6.07
pEC50 [3]: 6.14

O=C1c2ccccc2-c2nnc(-c3ccc(Br)cc3)cc21 [MMV665934]
percent_inh @ 5 uM [4]: 99%
pEC50 [5]: 5.97
pEC50 [11]: 5.60

FC(F)(F)c1ccc(Nc2nnnc3ccccc23)cc1 [MMV665935]
percent_inh @ 5 uM [1]: 77%

Cc1ccc(S(=O)(=O)c2c(COC(=O)c3cccc(C)c3)c(-c3ccccc3)nn2C)cc1 [MMV665936]
percent_inh @ 5 uM [4]: 95%
pEC50 [11]: 5.08

O=C(Nc1ccsc1C(=O)NC1CCCCC1)c1ccc(F)cc1 [MMV665939]
percent_inh @ 5 uM [1]: 86%
pEC50 [3]: 5.92

CCOc1ccc(C=Cc2nc(=O)c3ccccc3o2)cc1 [MMV665940]
percent_inh @ 5 uM [7]: 95%
pEC50 [8]: 6.25
pEC50 [9]: 6.73

CN(C)c1ccc(C(O)(c2ccc(N(C)C)cc2)c2ccc(N(C)C)cc2)cc1 [MMV665941]
percent_inh @ 5 uM [7]: 96%
pEC50 [8]: 6.59
pEC50 [9]: 6.21

Nc1ccc(-c2nc3cc(Cc4ccc5[nH]c(-c6ccc(N)cc6)nc5c4)ccc3[nH]2)cc1 [MMV665943]
percent_inh @ 5 uM [4]: 100%
pEC50 [5]: 5.85
pEC50 [11]: 6.61
pEC50 [6]: 6.29
pEC50 [9]: 5.97

COc1ccc(CN2CCN(Cc3ccccc3)CC2)c(O)c1 [MMV665944]
percent_inh @ 5 uM [4]: 96%
pEC50 [5]: 5.97
pEC50 [9]: 5.96

CC(C)=CCN1CCC(C(=O)Nc2ccc(-c3nc4ccccc4[nH]3)cc2)CC1 [MMV665946]
percent_inh @ 5 uM [1]: 96%
pEC50 [2]: 5.94

O=C(Nc1ccccc1O)c1ccc(-c2ccc(Cl)cc2Cl)o1 [MMV665948]
percent_inh @ 5 uM [1]: 97%
pEC50 [3]: 5.61

Oc1ccc(C(=C(Cl)Cl)c2ccc(O)cc2)cc1 [MMV665949]
percent_inh @ 5 uM [4]: 95%
pEC50 [9]: 5.61
